Reference: patent US20190169218A1, “AMPHIPATHIC COMPOUND HAVING NOVEL PENTA-SACCHARIDE HYDROPHILIC GROUP AND USE THEREOF” (Industry-University Cooperation Foundation Hanyang …, priority 2016, published 2019)

How the values were obtained:
[1] = molecular target: T1, boron transporter (BOR1) BOR1-GFP fusion protein (Arabidopsis thaliana, UniProt Q8VYR7); experiment: solubilization (extraction) of BOR1-GFP fusion protein from membranes; conditions: amphipathic compound at 1.0 wt %
T1 construct: made in house; host or cells: Saccharomyces cerevisiae FGY217
Method: The ability of PSAs and PSEs to solubilize membrane proteins and to stabilize the structures of membrane proteins was evaluated using boron transporter (BOR1), a membrane protein. BOR1 was isolated from Arabidopsis thaliana, and was expressed in the form of a fusion protein having a GFP tag at the C-terminus in Saccharomyces cerevisiae FGY217 cells. This fusion protein has been proven to have boron transporting activity and is therefore involved in both structural and functional analysis of membrane proteins.
The ability of amphipathic compound PSAs and PSEs to solubilize the boron transporter (BOR1) membrane protein was evaluated.
Specifically, membranes containing BOR1-GFP fusion proteins were treated with an existing amphipathic compound (DDM), PSAs (PSA-C9, PSA-C10 and PSA-C11), or PSEs (PSE-C9, PSE-C11 and PSE-C13) at a concentration of 1.0 wt %. The solubilization efficiencies of PSA-C9, PSA-C10 and PSE-C9 were about 80% similar to the solubilization efficiency of DDM. In particular, the BOR1-GFP protein was quantitatively extracted (˜100%) using PSE-C11 having medium length chains, thus confirming that PSE-C11 is particularly useful for solubilization of BOR1-GFP.
Specifically, Arabidopsis thaliana-derived BOR1 was expressed in the form of a fusion protein having a GFP tag at the C-terminus in Saccharomyces cerevisiae FGY217 cells. The cells were grown in an URA-medium supplemented with 0.1% glucose. 2% galactose was added to the cell culture to induce protein expression and the cells were cultured at 20° C. for 18 hours (see Drew, D. et al., Nat. Protoc. 2008, 3, 784-798.). After culture, the cells were harvested and used to obtain the cell membranes (see Leung, J. et al., Protein Expr. Purif. 2010, 72, 139-146.). Membranes containing BOR1-GFP fusion proteins were diluted to a final total protein concentration of 2.8 mg/mL in PBS (pH7.4) supplemented with 1 wt % DDM, 1 wt % PSAs (PSA-C9, PSA-C10 or PSA-C11) or 1 wt % PSEs (PSE-C9, PSE-C11 or PSE-C13). The diluted samples were incubated at 4° C. for 1 hour with gentle shaking, and insoluble substances were removed by centrifugation at 14,000 g for 1 hour at 4° C. Supernatants containing the dissolved protein samples were incubated for 10 minutes at the specified temperature (35, 40, 45 or 50° C.), and strongly agglutinated proteins were removed by centrifugation at 14,000 g for 10 minutes at 4° C. 200 μL aliquots were taken from the supernatant and injected into a Superose 6 10/300 column equilibrated with 20 mM Tris-HCl (pH 7.5), 150 mM NaCl and 0.03% DDM. Each elution fraction was collected from a retention volume of 6.4 mL (i.e., after 6.4 mL of solution had passed), and added to a well of a clear bottom 96-well plate at a volume of 200 μL. GFP fluorescence generated in each fraction was measured using an excitation wavelength of 470 nm and an emission wavelength of 512 nm.

[2] = molecular target: T2, human β2 adrenergic receptor (β2AR) (Homo sapiens, UniProt P07550); experiment: negative staining electron microscopy (EM) of purified β2AR
T2 construct: Flag; made in house
T2 sequence (P07550 whole entry): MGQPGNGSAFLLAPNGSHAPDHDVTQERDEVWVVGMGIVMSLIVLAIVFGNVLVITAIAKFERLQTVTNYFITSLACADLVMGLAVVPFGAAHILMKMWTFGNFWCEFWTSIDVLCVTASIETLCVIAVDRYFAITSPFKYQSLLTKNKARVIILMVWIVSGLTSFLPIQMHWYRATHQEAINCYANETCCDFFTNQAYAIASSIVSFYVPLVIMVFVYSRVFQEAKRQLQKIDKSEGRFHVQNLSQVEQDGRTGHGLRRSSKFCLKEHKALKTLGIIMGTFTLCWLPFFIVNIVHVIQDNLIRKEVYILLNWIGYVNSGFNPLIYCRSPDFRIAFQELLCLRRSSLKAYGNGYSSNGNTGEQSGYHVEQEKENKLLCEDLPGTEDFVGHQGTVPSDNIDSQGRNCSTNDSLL
Method: Electron microscopy (EM) analysis was performed on β2ARs solubilized in PSAs and PSEs.
Specifically, electron microscopy (EM) analysis was performed as follows. Samples were prepared using a conventional negative staining protocol (see Peisley, A. et al., G Protein-Coupled Receptors in Drug Discovery: Methods and Protocols, Methods in Molecular Biology, 1335, 29-38 (2015)). Briefly, 3 μL of β2ARs purified in DDM or the novel amphipathic compounds (PSA-C11, PSE-C11 and PSE-C13) was added into a glow-discharged carbon-coated grid by pipetting and stained with 1% (w/v) uranyl formate. Imaging was performed by operating a Morgagni 268 (D) transmission electron microscope (FEI Company) at 100 kV at room temperature. Images were recorded with an Orius SC200W CCD camera (Gatan Inc.) at a 30,416×magnification.

[3] = molecular target: T2, human β2 adrenergic receptor (β2AR); experiment: extraction and solubilization of β2AR directly from cell membranes ([3H]-DHA activity, SEC); conditions: for SEC peak of extracted β2AR: buffer not containing amphipathic compounds
Method: The best, PSE-C11, among tested PSAs/PSEs was used to extract β2ARs directly from the cell membranes. Receptors were treated with 1.0 wt % PSE-C11 or DDM, and the activity of the receptors solubilized in PSE-C11 or DDM was measured using a radiolabeled ligand, [^3H]-DHA.
Specifically, experiments to extract and solubilize receptors from the cell membranes were performed as follows. 10 mL of a PSE-C11 amphipathic compound buffer (20 mM HEPES (pH 7.5), 100 mM NaCl, 1.0 wt % PSE-C11) was added to 1 g of an insect cell (Sf9) pellet expressing β2ARs. The mixture was stirred for solubilization for 1 hour. After performing centrifugation at 12,000 g for 20 minutes, a supernatant was collected and loaded onto a M1 Flag column in the presence of 2 mM CaCl2. The column was washed with a PSE-C11 buffer (20 mM HEPES (pH 7.5), 100 mM NaCl, 0.2 wt % amphipathic compound). Receptors were eluted with 20×CMC PSE-C11, 5 mM EDTA and 0.2 mg/mL free Flag peptides. To measure the activity of the receptors solubilized and purified by DDM or PSE-C11, 0.2 pmol of β2ARs was incubated with […] [^3H]-DHA and each amphipathic compound at room temperature for 30 minutes, and the activity of β2ARs was measured. The following procedure was performed in the same manner as described in Example 9-3. Each measurement was performed three times. The receptors solubilized in 20×CMC PSE-C11 or 20×CMC DDM were also applied to SEC under a buffer (20 mM HEPES (pH 7.5), 100 mM NaCl) not containing an amphipathic compound (PSE-C11 or DDM).

[4] = test system: T4L-β2AR-Gs or β2AR-Gs complexes; conditions: purified by DDM, 4° C., reported in the prior art; cited from earlier work

SMILES | solubilization efficiency of BOR1-GFP [1] | agglutinated proteins in negative staining EM images of β2AR [2] | SEC peak of extracted β2AR [3] | stability of T4L-β2AR-Gs complexes [4] | activity of β2AR extracted from cell membranes ([3H]-DHA) ([3]; 1.0 wt % PSE-C11 or DDM)
CCCCCCCCCCCCO[C@@H]1O[C@H](CO)[C@@H](O[C@H]2O[C@H](CO)[C@@H](O)[C@H](O)[C@H]2O)[C@H](O)[C@H]1O [DDM, n-dodecyl-β-D-maltopyranoside, reference compound] | about 80% | many agglutinated proteins were observed | no peak corresponding to the proteins was observed | complex separation was observed even after 2 days of incubation | –
CCCCCCCCCCCC(CCCCCCCCCCC)CO[C@@H]1OC(CO[C@@H]2OC(CO)[C@@H](O)C(O)C2O)[C@@H](O[C@@H]2OC(CO)[C@@H](O)C(O)C2O)C(O[C@@H]2OC(CO)[C@@H](O)C(O)C2O)C1O[C@@H]1OC(CO)[C@@H](O)C(O)C1O (stereo partly shown) [PSA-C11] | – | the agglutinated proteins were hardly observed | – | – | –
CCCCCCCCCCCOCC(COCCCCCCCCCCC)O[C@@H]1OC(CO[C@@H]2OC(CO)[C@@H](O)C(O)C2O)[C@@H](O[C@@H]2OC(CO)[C@@H](O)C(O)C2O)C(O[C@@H]2OC(CO)[C@@H](O)C(O)C2O)C1O[C@@H]1OC(CO)[C@@H](O)C(O)C1O (stereo partly shown) [PSE-C11] | ~100% | the agglutinated proteins were hardly observed | a distinct monodisperse peak | – | higher activity than proteins extracted by DDM
CCCCCCCCCCCCCOCC(COCCCCCCCCCCCCC)O[C@@H]1OC(CO[C@@H]2OC(CO)[C@@H](O)C(O)C2O)[C@@H](O[C@@H]2OC(CO)[C@@H](O)C(O)C2O)C(O[C@@H]2OC(CO)[C@@H](O)C(O)C2O)C1O[C@@H]1OC(CO)[C@@H](O)C(O)C1O (stereo partly shown) [PSE-C13] | – | the amount of the agglutinated proteins was small | – | – | –
